According to PubChem BioAssay (NCI):
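These data come from cells grown in 96-well plates and exposed to compound for 48 hours at five concentrations. Definition used: TGI = concentration required for complete inhibition of growth.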

What was measured:
Assay in all cases: NCI tumour cell line growth inhibition, 48 h
786-0 renal = system: 786-0 renal
A498 renal = system: A498 renal
A549 NSCLC = system: A549 NSCLC
ACHN renal = system: ACHN renal
CAKI-1 renal = system: CAKI-1 renal
CCRF-CEM leukemia = system: CCRF-CEM leukemia
COLO 205 colon = system: COLO 205 colon
DLD-1 colon = system: DLD-1 colon
DMS 114 small cell lung = system: DMS 114 small cell lung
DMS 273 small cell lung = system: DMS 273 small cell lung
EKVX NSCLC = system: EKVX NSCLC
HCC-2998 colon = system: HCC-2998 colon
HCT-116 colon = system: HCT-116 colon
HCT-15 colon = system: HCT-15 colon
HL-60(TB) leukemia = system: HL-60(TB) leukemia
HOP-62 NSCLC = system: HOP-62 NSCLC
HOP-92 NSCLC = system: HOP-92 NSCLC
HT29 colon = system: HT29 colon
IGROV1 ovarian = system: IGROV1 ovarian
K-562 leukemia = system: K-562 leukemia
KM12 colon = system: KM12 colon
KM20L2 colon = system: KM20L2 colon
LOX IMVI melanoma = system: LOX IMVI melanoma
LXFL 529 NSCLC = system: LXFL 529 NSCLC
M14 melanoma = system: M14 melanoma
M19-MEL melanoma = system: M19-MEL melanoma
MALME-3M melanoma = system: MALME-3M melanoma
MOLT-4 leukemia = system: MOLT-4 leukemia
NCI-H226 lung = system: NCI-H226 lung
NCI-H23 lung = system: NCI-H23 lung
NCI-H460 lung = system: NCI-H460 lung
NCI-H522 lung = system: NCI-H522 lung
OVCAR-3 ovarian = system: OVCAR-3 ovarian
OVCAR-4 ovarian = system: OVCAR-4 ovarian
OVCAR-5 ovarian = system: OVCAR-5 ovarian
RPMI-8226 leukemia = system: RPMI-8226 leukemia
RXF 393 renal = system: RXF 393 renal
RXF-631 renal = system: RXF-631 renal
SF-268 CNS = system: SF-268 CNS
SF-295 CNS = system: SF-295 CNS
SF-539 CNS = system: SF-539 CNS
SK-MEL-2 melanoma = system: SK-MEL-2 melanoma
SK-MEL-28 melanoma = system: SK-MEL-28 melanoma
SK-MEL-5 melanoma = system: SK-MEL-5 melanoma
SK-OV-3 ovarian = system: SK-OV-3 ovarian
SN12C renal = system: SN12C renal
SNB-19 CNS = system: SNB-19 CNS
SNB-75 CNS = system: SNB-75 CNS
SNB-78 CNS = system: SNB-78 CNS
SR leukemia = system: SR leukemia
SW-620 colon = system: SW-620 colon
TK-10 renal = system: TK-10 renal
U251 CNS = system: U251 CNS
UO-31 renal = system: UO-31 renal

Measured: TGI

CC(C)(CCl)NC(=O)c1cccc(C(=O)NC(C)(C)CCl)n1
> 100 µM: 786-0 renal | A498 renal | A549 NSCLC | ACHN renal | CAKI-1 renal | CCRF-CEM leukemia | COLO 205 colon | DLD-1 colon | DMS 114 small cell lung | DMS 273 small cell lung | EKVX NSCLC | HCC-2998 colon | HCT-116 colon | HCT-15 colon | HL-60(TB) leukemia | HOP-62 NSCLC | HOP-92 NSCLC | HT29 colon | IGROV1 ovarian | K-562 leukemia | KM12 colon | KM20L2 colon | LOX IMVI melanoma | LXFL 529 NSCLC | M14 melanoma | M19-MEL melanoma | MALME-3M melanoma | MOLT-4 leukemia | NCI-H226 lung | NCI-H23 lung | NCI-H460 lung | NCI-H522 lung | OVCAR-3 ovarian | OVCAR-4 ovarian | OVCAR-5 ovarian | RPMI-8226 leukemia | RXF 393 renal | RXF-631 renal | SF-268 CNS | SF-295 CNS | SF-539 CNS | SK-MEL-2 melanoma | SK-MEL-28 melanoma | SK-MEL-5 melanoma | SK-OV-3 ovarian | SN12C renal | SNB-19 CNS | SNB-75 CNS | SNB-78 CNS | SR leukemia | SW-620 colon | TK-10 renal | U251 CNS | UO-31 renal
